US8884023B2, “Pyrano [3,2-D][1,3]thiazole as glycosidase inhibitors” (priority 2011, dated 2014)
Read-outs that look alike come from different tables or passages of the source.

What was measured:
[1] = target: T1, His-Tagged hOGA (human O-GlcNAcase) (Homo sapiens, UniProt O60502); experiment: biochemical
T1 sequence (O60502 1-916): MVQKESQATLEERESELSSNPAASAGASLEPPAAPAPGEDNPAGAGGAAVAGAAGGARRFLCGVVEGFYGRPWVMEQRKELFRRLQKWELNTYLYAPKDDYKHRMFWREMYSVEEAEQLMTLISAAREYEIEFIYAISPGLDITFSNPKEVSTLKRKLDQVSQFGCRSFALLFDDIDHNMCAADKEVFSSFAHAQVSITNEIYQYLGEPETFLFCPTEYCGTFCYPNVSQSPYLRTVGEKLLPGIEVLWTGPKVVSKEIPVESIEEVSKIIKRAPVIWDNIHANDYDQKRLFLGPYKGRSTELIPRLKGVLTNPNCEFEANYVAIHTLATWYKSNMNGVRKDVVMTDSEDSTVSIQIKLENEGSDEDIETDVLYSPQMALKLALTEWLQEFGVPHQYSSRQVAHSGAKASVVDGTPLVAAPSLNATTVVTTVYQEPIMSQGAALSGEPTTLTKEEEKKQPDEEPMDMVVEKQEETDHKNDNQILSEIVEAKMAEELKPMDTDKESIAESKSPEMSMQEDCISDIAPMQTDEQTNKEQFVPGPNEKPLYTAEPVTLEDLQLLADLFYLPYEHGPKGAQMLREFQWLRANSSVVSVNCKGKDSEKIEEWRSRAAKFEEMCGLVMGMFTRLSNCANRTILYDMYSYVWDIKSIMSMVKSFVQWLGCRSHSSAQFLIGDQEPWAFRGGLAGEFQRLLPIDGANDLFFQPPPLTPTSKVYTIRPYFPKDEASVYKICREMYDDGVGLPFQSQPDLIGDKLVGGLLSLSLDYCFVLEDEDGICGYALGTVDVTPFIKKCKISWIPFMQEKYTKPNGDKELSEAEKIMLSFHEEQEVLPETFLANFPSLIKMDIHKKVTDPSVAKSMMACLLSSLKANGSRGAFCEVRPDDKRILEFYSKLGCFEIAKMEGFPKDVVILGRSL

O-GlcNAcase = target: T2, O-GlcNAcase (UniProt Q8VIJ5); format: cell-based
T2 sequence (Q8VIJ5 1-916): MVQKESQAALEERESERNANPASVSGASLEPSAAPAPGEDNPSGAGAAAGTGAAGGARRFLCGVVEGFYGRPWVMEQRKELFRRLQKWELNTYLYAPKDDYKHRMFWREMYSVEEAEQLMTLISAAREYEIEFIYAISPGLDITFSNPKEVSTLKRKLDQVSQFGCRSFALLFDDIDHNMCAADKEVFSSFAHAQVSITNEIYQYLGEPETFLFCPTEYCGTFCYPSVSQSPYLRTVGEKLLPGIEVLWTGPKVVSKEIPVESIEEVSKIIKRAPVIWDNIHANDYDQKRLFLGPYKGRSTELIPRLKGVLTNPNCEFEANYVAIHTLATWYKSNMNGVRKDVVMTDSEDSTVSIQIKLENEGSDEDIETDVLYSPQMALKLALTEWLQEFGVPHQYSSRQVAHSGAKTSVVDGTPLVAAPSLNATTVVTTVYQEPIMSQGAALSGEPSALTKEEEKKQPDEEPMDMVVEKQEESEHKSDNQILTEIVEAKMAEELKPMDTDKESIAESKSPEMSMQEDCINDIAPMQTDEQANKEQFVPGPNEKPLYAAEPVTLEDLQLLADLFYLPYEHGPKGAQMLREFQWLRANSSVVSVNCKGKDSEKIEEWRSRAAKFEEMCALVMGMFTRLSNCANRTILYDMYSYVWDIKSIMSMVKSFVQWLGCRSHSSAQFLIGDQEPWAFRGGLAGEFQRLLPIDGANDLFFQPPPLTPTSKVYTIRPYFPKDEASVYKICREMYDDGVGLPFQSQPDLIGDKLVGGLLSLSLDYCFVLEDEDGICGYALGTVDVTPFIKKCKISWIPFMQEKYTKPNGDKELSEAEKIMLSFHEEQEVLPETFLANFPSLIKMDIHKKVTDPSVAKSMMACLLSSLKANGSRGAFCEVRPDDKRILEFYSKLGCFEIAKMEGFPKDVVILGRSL
Text: Assay for the Determination of Cellular Activity for Compounds that Inhibit O-GlcNAcase Activity
Inhibition of O-GlcNAcase, which removes O-GlcNAc from cellular proteins, results in an increase in the level of O-GlcNAcylated proteins in cells. An increase in the O-GlcNAcylation of cellular proteins can be measured by an antibody, such as CTD110.6, that binds O-GlcNAcylated proteins. The amount of O-GlcNAcylated protein can be determined by the enzyme linked immunoabsorbant assay (ELISA) technique.
Cell lines, such as rat B35, rat PC-12 and human SH-SY5Y cells, expressing endogenous levels of O-GlcNAcase, could be utilized. Cells were plated in 96-well plates at a density of approximately 10,000 cells/well. Compounds to be tested were dissolved in DMSO as 10 mM stock solution, and then diluted first with DMSO and then culture media using the Bravo workstation. Cells were treated with diluted compounds for approximately 16 hours. […] To prepare a cell lysate, the media from compound treated cells were removed, and the cells were washed once with Dulbecco's phosphate buffered saline (DPBS) and then lysed for 30 minutes in 100 μl/well of ice cold RIPA buffer containing a protease inhibitor cocktail.
The ELISA portion of the assay was performed in EIA/RIA plates that were coated overnight at 4 C with 80 μl/well of cell lysate. The following day the wells were washed 6 times with 200 μl of wash buffer (0.05% Tween20 in DPBS). The wells were blocked with 200 μl blocking buffer (1% BSA, 0.05% Tween20 in DPBS) for 1 h at room temperature. Each well was then washed 6 times with 200 μl of wash buffer. The anti-O-GlcNAc antibody CTD110.6 (Covance, Princeton, N.J.) was added at 100 μl/well at a concentration of 10 μg/ml. The plates were incubated for 1 h at room temperature. The wells were then washed 6 times with 200 μl/well of wash buffer. To detect the amount of CTD110.6 bound to the cell lysate, alkaline phosphatase conjugated goat anti-mouse IgM (diluted 1:500 in blocking buffer) was added at 100 μl/well and incubated for 45 min at room temperature. Each well was then washed 6 times with 200 μl/well of wash buffer. PNPP tablets dissolved in diethanolamine substrate buffer and 100 μl/well were added as detection reagent.
The amount of O-GlcNAcylated protein, as detected by the ELISA assay, was plotted for each concentration of test compound using standard curve fitting algorithms for sigmoidal dose response curves. The values for a four parameter logistic curve fit of the data were determined, with the inflection point of the curve being the potency value for the test compound.

[2] = read-out: OGA enzyme inhibition (IC50)
[3] = cells expressing endogenous O-GlcNAcase (such as rat B35, rat PC-12, human SH-SY5Y), approximately 16 hours treatment; read-out: OGA cellular inhibition (EC50)

| SMILES | IC50 [1, 2] | EC50 (O-GlcNAcase; [3]) | IC50 [1] | EC50 (O-GlcNAcase; read-out: OGA cellular inhibition (EC50); cells expressing endogenous O-GlcNAcase (such as rat B35, rat PC-12, human SH-SY5Y), approximately 16 hours treatment) |
| --- | --- | --- | --- | --- |
| CCNC1=N[C@@H]2[C@@H](O)[C@H](O)[C@@H](Cn3cc(COc4ccc(C(C)(C)C)cc4)nn3)O[C@@H]2S1 [compound 94] | – | 100 to 500 nM | 100 to 500 nM | – |
| CCNC1=N[C@@H]2[C@@H](O)[C@H](O)[C@@H](CF)O[C@@H]2S1 [compound no. 4, (3aR,5S,6S,7R,7aR)-2-(ethylamino)-5-(fluoromethyl)-5,6,7,7a-tetrahydro-3aH-pyrano[3,2-d][1,3]thiazole-6,7-diol] | – | – | < 100 nM | 100 to 500 nM |
| CCNC1=N[C@@H]2[C@@H](O)[C@H](O)[C@@H](Cn3cc(CCc4ccccc4)nn3)O[C@@H]2S1 [compound no. 6, (3aR,5R,6S,7R,7aR)-2-(ethylamino)-5-{[4-(2-phenylethyl)-1H-1,2,3-triazol-1-yl]methyl}-5,6,7,7a-tetrahydro-3aH-pyrano[3,2-d][1,3]thiazole-6,7-diol] | – | 500 to 1000 nM | < 100 nM | – |
| CCNC1=N[C@@H]2[C@@H](O)[C@H](O)[C@@H](Cn3cc(C(=O)OC)nn3)O[C@@H]2S1 [compound no. 10, Methyl 1-{[(3aR,5R,6S,7R,7aR)-2-(ethylamino)-6,7-dihydroxy-5,6,7,7a-tetrahydro-3aH-pyrano[3,2-d][1,3]thiazol-5-yl]methyl}-1H-1,2,3-triazole-4-carboxylate] | 100 to 500 nM | 500 to 1000 nM | – | – |
| CCN(C(=O)OC(C)(C)C)C1=N[C@@H]2[C@@H](O)[C@H](O)[C@@H](CO)O[C@@H]2S1 [compound no. 12, Tert-butyl [(3aR,5R,6S,7R,7aR)-6,7-dihydroxy-5-(hydroxymethyl)-5,6,7,7a-tetrahydro-3aH-pyrano[3,2-d][1,3]thiazol-2-yl]ethylcarbamate] | – | < 100 nM | < 100 nM | – |
| CCNC1=N[C@@H]2[C@@H](O)[C@H](O)[C@@H](Cn3cc(Cc4ccccc4)nn3)O[C@@H]2S1 [compound no. 14, (3aR,5R,6S,7R,7aR)-5-[(4-benzyl-1H-1,2,3-triazol-1-yl)methyl]-2-(ethylamino)-5,6,7,7a-tetrahydro-3aH-pyrano[3,2-d][1,3]thiazole-6,7-diol] | – | 100 to 500 nM | < 100 nM | – |
| CCNC1=N[C@@H]2[C@@H](O)[C@H](O)[C@@H](Cn3cc(CCCc4ccccc4)nn3)O[C@@H]2S1 [compound no. 30, (3aR,5R,6S,7R,7aR)-2-(ethylamino)-5-{[4-(3-phenylpropyl)-1H-1,2,3-triazol-1-yl]methyl}-5,6,7,7a-tetrahydro-3aH-pyrano[3,2-d][1,3]thiazole-6,7-diol] | – | > 1000 nM | 100 to 500 nM | – |

More lines, main results first:

| IC50 [1, 2] | EC50 (O-GlcNAcase; [3]) | SMILES | IC50 [1] | EC50 (O-GlcNAcase; read-out: OGA cellular inhibition (EC50); cells expressing endogenous O-GlcNAcase (such as rat B35, rat PC-12, human SH-SY5Y), approximately 16 hours treatment) |
| --- | --- | --- | --- | --- |
| < 100 nM | > 1000 nM | CCNC1=N[C@@H]2[C@@H](O)[C@H](O)[C@@H](Cn3cc(COc4ccc(F)cc4)nn3)O[C@@H]2S1 [compound 93] | – | – |
| 100 to 500 nM | > 1000 nM | CCNC1=N[C@@H]2[C@@H](O)[C@H](O)[C@@H](Cn3cc(-c4ccccc4)nn3)O[C@@H]2S1 [compound no. 2, (3aR,5R,6S,7R,7aR)-2-(ethylamino)-5-[(4-phenyl-1H-1,2,3-triazol-1-yl)methyl]-5,6,7,7a-tetrahydro-3aH-pyrano[3,2-d][1,3]thiazole-6,7-diol] | – | – |
| 100 to 500 nM | < 100 nM | CCNC1=N[C@@H]2[C@@H](O)[C@H](O)[C@@H](COC(=O)OC(C)(C)C)O[C@@H]2S1 [compound no. 3, tert-butyl [(3aR,5R,6S,7R,7aR)-2-(ethylamino)-6,7-dihydroxy-5,6,7,7a-tetrahydro-3aH-pyrano[3,2-d][1,3]thiazol-5-yl]methyl carbonate] | – | – |
| < 100 nM | 100 to 500 nM | CCNC1=N[C@@H]2[C@@H](O)[C@H](O)[C@@H](CBr)O[C@@H]2S1 [compound no. 5, (3aR,5S,6S,7R,7aR)-5-(bromomethyl)-2-(ethylamino)-5,6,7,7a-tetrahydro-3aH-pyrano[3,2-d][1,3]thiazole-6,7-diol] | – | – |
| 100 to 500 nM | > 1000 nM | CCNC1=N[C@@H]2[C@@H](O)[C@H](O)[C@@H](Cn3cc(-c4ccccn4)nn3)O[C@@H]2S1 [compound no. 7, (3aR,5R,6S,7R,7aR)-2-(ethylamino)-5-[(4-pyridin-2-yl-1H-1,2,3-triazol-1-yl)methyl]-5,6,7,7a-tetrahydro-3aH-pyrano[3,2-d][1,3]thiazole-6,7-diol] | – | – |
| 500 to 1000 nM | > 1000 nM | C/C=C/C(=O)NC1=N[C@@H]2[C@@H](O)[C@H](O)[C@@H](CO)O[C@@H]2S1 [compound no. 19, (2E)-N-[(3aR,5R,6S,7R,7aR)-6,7-dihydroxy-5-(hydroxymethyl)-5,6,7,7a-tetrahydro-3aH-pyrano[3,2-d][1,3]thiazol-2-yl]but-2-enamide] | – | – |
| < 100 nM | < 100 nM | CCNC1=N[C@@H]2[C@@H](O)[C@H](O)[C@@H](CCl)O[C@@H]2S1 [compound no. 32, (3aR,5S,6S,7R,7aR)-5-(chloromethyl)-2-(ethylamino)-5,6,7,7a-tetrahydro-3aH-pyrano[3,2-d][1,3]thiazole-6,7-diol] | – | – |
| 100 to 500 nM | 100 to 500 nM | CCNC1=N[C@@H]2[C@@H](OS(C)(=O)=O)[C@H](O)[C@@H](CO)O[C@@H]2S1 [compound no. 46, (3aR,5R,6R,7R,7aR)-2-(ethylamino)-6-hydroxy-5-(hydroxymethyl)-5,6,7,7a-tetrahydro-3aH-pyrano[3,2-d][1,3]thiazol-7-yl methanesulfonate] | – | – |
